Data taken from ChEMBL document CHEMBL5550154, “Novel biaryloxazolidinone derivatives with broad-spectrum antibacterial activity, favorable drug-like profiles and in vivo efficacy against linezolid-resistant Staphylococcusaureus” (Eur J Med Chem, 2024).
≈ marks a conversion by molar mass, not a printed value. Calls of active or inactive are those of the source. The calls are words filed in the database; no cut-off is given here.

Legend:
Enterococcus faecalis = assay: Antibacterial activity against linezolid-resistant Enterococcus faecalis assessed as inhibition of bacterial growth incubated for 16 to 20 hrs by CLSI based broth liquid microdilution method; type: functional; details: time 16-20 hrs
[1] = Microsomal stability in human liver microsomes assessed as elimination half life pretreated with compound upto 60 mins followed by NADPH addition and measured after 60 mins by LC/MS analysis; type: ADME, Microsome; details: time < 120 min; for half-life: liver microsomes, read-out: beta t1/2
[2] = Microsomal stability in rat liver microsomes assessed as elimination half life pretreated with compound upto 60 mins followed by NADPH addition and measured after 60 mins by LC/MS analysis; type: ADME, Microsome; details: for half-life: liver microsomes, read-out: beta t1/2
[3] = Microsomal stability in monkey liver microsomes assessed as intrinsic clearance pretreated with compound upto 60 mins followed by NADPH addition and measured after 60 mins by LC/MS analysis; type: ADME, Macaca mulatta, Microsome; details: rhesus monkey, time < 120 min, read-out: CLH
[4] = Microsomal stability in mouse liver microsomes assessed as intrinsic clearance pretreated with compound upto 60 mins followed by NADPH addition and measured after 60 mins by LC/MS analysis; type: ADME, Microsome; details: time < 120 min, read-out: CLH
[5] = Microsomal stability in human liver microsomes assessed as parent compound remaining pretreated with compound upto 60 mins followed by NADPH addition and measured after 60 mins by LC/MS analysis; type: ADME, Microsome; details: time < 120 min; for remaining at 2 h: liver microsomes, read-out: Stability
[6] = Microsomal stability in monkey liver microsomes assessed as parent compound remaining pretreated with compound upto 60 mins followed by NADPH addition and measured after 60 mins by LC/MS analysis; type: ADME, Macaca mulatta, Microsome; details: rhesus monkey, time < 120 min, read-out: Stability
[7] = Microsomal stability in dog liver microsomes assessed as parent compound remaining pretreated with compound upto 60 mins followed by NADPH addition and measured after 60 mins by LC/MS analysis; type: ADME, Canis lupus familiaris, Microsome; details: time < 120 min, read-out: Stability
[8] = Microsomal stability in rat liver microsomes assessed as parent compound remaining pretreated with compound upto 60 mins followed by NADPH addition and measured after 60 mins by LC/MS analysis; type: ADME, Microsome; details: time < 120 min; for remaining at 2 h: liver microsomes, read-out: Stability
[9] = Microsomal stability in mouse liver microsomes assessed as parent compound remaining pretreated with compound upto 60 mins followed by NADPH addition and measured after 60 mins by LC/MS analysis; type: ADME, Microsome; details: time < 120 min; for remaining at 2 h: liver microsomes, read-out: Stability
[10] = Stability in human plasma assessed as parent compound remaining at 37 degreeC measured upto 60 mins by HPLC analysis; type: ADME, cell-free; details: read-out: Stability
[11] = Stability in mouse plasma assessed as parent compound remaining at 37 degreeC measured upto 60 mins by HPLC analysis; type: ADME, cell-free; details: read-out: Stability
[12] = Stability in human plasma assessed as parent compound remaining at 25 degreeC measured upto 60 mins by HPLC analysis; type: ADME, cell-free; details: for remaining at 1 h: read-out: Stability; for Stability: 1 h
[13] = Stability in rat plasma assessed as parent compound remaining at 25 degreeC measured upto 60 mins by HPLC analysis; type: ADME, cell-free; details: for remaining at 1 h: read-out: Stability
[14] = Stability in mouse plasma assessed as parent compound remaining at 25 degreeC measured upto 60 mins by HPLC analysis; type: ADME, cell-free; details: for remaining at 1 h: read-out: Stability; for Stability: 1 h
[15] = Plasma protein binding in human incubated for 6 hrs by LC-MS/MS analysis; type: ADME, cell-free; details: read-out: PPB (converted)
[16] = Plasma protein binding in monkey incubated for 6 hrs by LC-MS/MS analysis; type: ADME, cell-free, Macaca mulatta; details: rhesus monkey, read-out: PPB (converted)
[17] = Stability in simulated gastric acid assessed as compound remaining at pH 1.3 measured at 1 hr; type: ADME; details: read-out: Stability
[18] = AUC (0 to t) in Sprague-Dawley rat at 1 mg/kg, iv measured upto 24 hrs by LC-MS analysis; type: ADME, organism-based; details: in vivo
[19] = Clearance in Sprague-Dawley rat at 1 mg/kg, iv measured upto 24 hrs by LC-MS analysis; type: ADME, organism-based; details: in vivo
[20] = Apparent volume of distribution in Sprague-Dawley rat at 1 mg/kg, iv measured upto 24 hrs by LC-MS analysis; type: ADME, organism-based; details: in vivo, read-out: Vz
[21] = Bioavailability in Sprague-Dawley rat at 10 mg/kg, IG measured upto 24 hrs by LC-MS analysis; type: ADME, organism-based; details: in vivo, po
[22] = Half life in ICR mouse at 1 mg/kg, iv measured upto 24 hrs by LC-MS analysis; type: ADME, organism-based; details: in vivo
[23] = Cmax in ICR mouse at 10 mg/kg, IG measured upto 24 hrs by LC-MS analysis; type: ADME, organism-based; details: in vivo, po
Cytochrome P450 2C9 = Cytochrome P450 2C9 (Homo sapiens, UniProt P11712); assay: Inhibition of CYP2C9 in human liver microsomes using […] preincubated with compound for 5 mins followed by substrate addition and measured after 120 mins in presence of NADPH by LC-MS/MS analysis; type: ADME, Microsome
Sequence of Cytochrome P450 2C9 (P11712 whole entry): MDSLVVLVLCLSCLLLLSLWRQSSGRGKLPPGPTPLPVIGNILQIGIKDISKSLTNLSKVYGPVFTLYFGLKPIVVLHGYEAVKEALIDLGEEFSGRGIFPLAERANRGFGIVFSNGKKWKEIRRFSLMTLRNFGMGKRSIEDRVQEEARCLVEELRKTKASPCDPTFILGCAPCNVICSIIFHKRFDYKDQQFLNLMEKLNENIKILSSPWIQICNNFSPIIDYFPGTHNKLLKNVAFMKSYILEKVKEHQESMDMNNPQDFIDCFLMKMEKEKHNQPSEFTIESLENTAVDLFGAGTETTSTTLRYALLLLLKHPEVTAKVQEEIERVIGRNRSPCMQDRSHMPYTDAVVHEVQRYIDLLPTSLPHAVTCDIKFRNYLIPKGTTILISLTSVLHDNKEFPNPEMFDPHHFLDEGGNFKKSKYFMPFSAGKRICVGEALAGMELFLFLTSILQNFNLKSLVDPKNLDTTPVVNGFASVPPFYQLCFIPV

Cytochrome P450 3A4 = Cytochrome P450 3A4 (Homo sapiens, UniProt P08684); assay: Inhibition of CYP3A4 in human liver microsomes […] preincubated with compound for 5 mins followed by substrate addition and measured after 120 mins in presence of NADPH by LC-MS/MS analysis; type: ADME, Microsome
Sequence of Cytochrome P450 3A4 (P08684 whole entry): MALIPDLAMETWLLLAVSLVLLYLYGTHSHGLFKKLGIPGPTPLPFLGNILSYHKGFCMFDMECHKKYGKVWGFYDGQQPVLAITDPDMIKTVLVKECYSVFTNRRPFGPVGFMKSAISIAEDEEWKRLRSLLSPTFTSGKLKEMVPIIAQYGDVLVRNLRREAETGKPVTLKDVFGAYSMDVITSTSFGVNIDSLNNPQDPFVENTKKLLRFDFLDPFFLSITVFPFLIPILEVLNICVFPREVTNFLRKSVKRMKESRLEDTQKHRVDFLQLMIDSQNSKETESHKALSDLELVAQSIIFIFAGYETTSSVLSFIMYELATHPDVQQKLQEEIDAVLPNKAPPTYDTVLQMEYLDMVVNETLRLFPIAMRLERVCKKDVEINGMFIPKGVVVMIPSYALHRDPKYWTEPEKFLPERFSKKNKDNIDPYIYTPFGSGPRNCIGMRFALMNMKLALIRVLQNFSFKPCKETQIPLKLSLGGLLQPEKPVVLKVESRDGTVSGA

[24] = Apparent permeability across apical to basolateral side in human Caco-2 cells; type: ADME, cell-based
[25] = Efflux ratio of apparent permeability across […] side in human Caco-2 cells; type: ADME, cell-based
Staphylococcus aureus [26] = assay: Antibacterial activity against Linezolid-resistant Staphylococcus aureus infected in systemic infection SPF-kunming mouse model assessed as survival rate at 10 to 40 mg/kg, IG measured 3 days after infection; type: functional, organism-based; details: dose 10-40 mg/kg
Staphylococcus aureus [27] = assay: Antibacterial activity against Linezolid-resistant Staphylococcus aureus infected in systemic infection SPF-kunming mouse model assessed as survival rate at 40 mg/kg, IG measured every day for 7 days; type: functional; details: po, 168 h, time 7 day
Staphylococcus aureus [28] = assay: Antibacterial activity against Linezolid-resistant Staphylococcus aureus infected in systemic infection SPF-kunming mouse model assessed as survival rate at 10 mg/kg, IG measured every day for 7 days; type: functional, organism-based; details: time 7.0 day
[29] = molecular target: T1, Amine oxidase [flavin-containing] A (Homo sapiens, UniProt P21397); assay: Inhibition of MAO-A (unknown origin) preincubated with compound for 15 mins followed by substrate addition and measured after 60 mins by luminescence based microplate reader analysis; type: toxicity
T1 sequence (P21397 whole entry): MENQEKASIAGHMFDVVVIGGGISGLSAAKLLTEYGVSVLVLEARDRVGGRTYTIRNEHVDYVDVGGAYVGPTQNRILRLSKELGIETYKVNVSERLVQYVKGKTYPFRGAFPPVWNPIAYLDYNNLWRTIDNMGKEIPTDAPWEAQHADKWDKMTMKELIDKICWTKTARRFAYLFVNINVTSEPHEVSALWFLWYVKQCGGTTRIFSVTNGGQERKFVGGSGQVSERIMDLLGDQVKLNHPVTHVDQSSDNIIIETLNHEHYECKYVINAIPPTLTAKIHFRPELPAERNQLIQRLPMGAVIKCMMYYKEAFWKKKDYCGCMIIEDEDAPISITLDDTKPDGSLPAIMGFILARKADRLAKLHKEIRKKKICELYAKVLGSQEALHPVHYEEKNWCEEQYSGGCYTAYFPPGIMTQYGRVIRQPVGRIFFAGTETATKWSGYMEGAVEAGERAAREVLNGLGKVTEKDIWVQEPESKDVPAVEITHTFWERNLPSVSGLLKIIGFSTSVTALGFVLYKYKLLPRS

Staphylococcus aureus [30] = assay: Antibacterial activity against methicillin-sensitive Staphylococcus aureus assessed as inhibition of bacterial growth; type: functional

| Compound | MIC (Enterococcus faecalis) [µg/mL] | microsomal CLint [3] [µL/min/mg] | microsomal CLint [4] [µL/min/mg] | remaining at 2 h [5] [%] | remaining at 2 h [6] [%] | remaining at 2 h [7] [%] | remaining at 1 h [10] [%] | remaining at 1 h [11] [%] | remaining at 1 h [13] [%] | fraction unbound at 6 h [15] | fraction unbound at 6 h [16] | AUC(0-t) at 24 h [18] [ng·h/mL] | clearance [19] [mL/min/kg] | Vd [20] [L/kg] | bioavailability [21] [%] | half-life [22] [h] | Cmax [23] [ng/mL] | IC50 (Cytochrome P450 2C9) [µM] | IC50 (Cytochrome P450 3A4) [µM] | half-life [2] [h] | also measured |
| --- | --- | --- | --- | --- | --- | --- | --- | --- | --- | --- | --- | --- | --- | --- | --- | --- | --- | --- | --- | --- | --- |
| CC(C)N/N=C/c1ccc(-c2ccc(N3C[C@H](CO)OC3=O)cc2F)cn1 | 1 (≈ 2.69 µM) | 13.7 | 18.4 | 85.8 | 66 | 76.7 | 107 | 80.2 | 111 | 0.074 | 0.115 | 1580 | 10.3 | 0.72 | 65.8 | 0.34 | 479 | > 30 | 16.5 | – | half-life [1]: 4.68 h; beta t1/2 ([2]; microsomes, 1 h): 1.87 h; Stability ([8]; microsomes, 2 h): 70.2%; Stability ([9]; microsomes, 2 h): 57.9%; remaining at 1 h [12]: 112%; remaining at 1 h [14]: 113%; remaining at 1 h [17]: 94.3% |
| O=C1O[C@@H](CO)CN1c1ccc(-c2ccc(/C=N/N3CCCCC3)nc2)c(F)c1 | 0.5 (≈ 1.25 µM) | 17.2 | 9.37 | – | 59 | 67.4 | 118 | 111 | – | 0.013 | 0.028 | 1400 | 11.6 | 1.06 | 51.1 | 1.54 | 817 | 5.38 | > 30 | 1.61 | Papp A→B [24]: 11.1 ×10⁻⁶ cm/s; Ratio [25]: 1.5; beta t1/2 ([1]; microsomes, 2 h): 2 h; Stability ([5]; microsomes, 2 h): 71.7%; remaining at 2 h [8]: 63.3%; remaining at 2 h [9]: 75.2%; Stability [12]: 149%; Stability ([13]; 1 h): 124%; Stability [14]: 123%; Activity (Staphylococcus aureus [26]): inactive |
| O=C1O[C@@H](CO)CN1c1ccc(-c2ccc(/C=N/N3CCOCC3)nc2)c(F)c1 | 0.5 (≈ 1.25 µM) | 3.25 | 2.02 | 66.2 | 93.3 | 96.8 | 98.6 | 98.3 | 116 | 0.144 | 0.215 | 1220 | 14 | 0.81 | 68.1 | 2.1 | 4810 | > 30 | > 30 | 10.2 | Papp A→B [24]: 36.7 ×10⁻⁶ cm/s; Ratio [25]: 0.61; half-life [1]: 1.83 h; remaining at 2 h [8]: 93.4%; remaining at 2 h [9]: 96%; remaining at 1 h [12]: 102%; Stability [14]: 125%; survival at 40 mg/kg (Staphylococcus aureus [27]): 100%; Activity (Staphylococcus aureus [28]): Active; IC50 [29]: 5.64 µM |
| O=C1O[C@@H](CO)CN1c1ccc(-c2ccc(/C=N/N3CCS(=O)(=O)CC3)nc2)c(F)c1 | 0.5 (≈ 1.11 µM) | 2.39 | 1.07 | 98.7 | 98.8 | 97 | 104 | 102 | 113 | 0.223 | 0.284 | 1120 | 14.7 | 0.73 | 19.8 | – | – | > 30 | > 30 | 12.1 | half-life [1]: 15.3 h; remaining at 2 h [8]: 92.8%; remaining at 2 h [9]: 96%; Stability [12]: 126%; Stability [14]: 133% |
| CC(=O)NC[C@H]1CN(c2ccc(N3CCOCC3)c(F)c2)C(=O)O1 [LINEZOLID] | – | 0.446 | 2.18 | 102 | 99.4 | 97.8 | 110 | 105 | 99.2 | 0.716 | 0.745 | 719 | 24.7 | 0.75 | – | 0.39 | 10000 | > 30 | > 30 | 10.4 | MIC (Staphylococcus aureus [30]): 1 µg/mL (≈ 2.96 µM); remaining at 2 h [8]: 93.9%; remaining at 2 h [9]: 92.3%; remaining at 1 h [12]: 99.4%; remaining at 1 h [14]: 110%; IC50 [29]: 20 µM |
